Columns and labels:
human recombinant BTK = human recombinant BTK (Homo sapiens (Human), UniProt Q06187); experiment: BTK Enzymatic Activity Assay (Caliper-based kinase assay); type: biochemical; conditions: human recombinant BTK (0.5 nM), ATP (16 μM), peptide substrate (1 μM), room temperature for 3 h
Method: A Caliper-based kinase assay (Caliper Life Sciences, Hopkinton, Mass.) was used to measure inhibition of BTK kinase activity of a compound of the present disclosure. Serial dilutions of test compounds were incubated with human recombinant BTK (0.5 nM), ATP (16 μM) and a phosphoacceptor peptide substrate FAM-GEEPLYWSFPAKKK-NH2 (1 μM) at room temperature for 3 h. The reaction was then terminated with EDTA, final concentration 20 mM and the phosphorylated reaction product was quantified on a Caliper Desktop Profiler (Caliper LabChip 3000). Percent inhibition was calculated for each compound dilution and the concentration that produced 50% inhibition was calculated. This value is presented as the IC50.

CD69 expression = experiment: Blockade of CD69 Expression in Human Whole Blood Samples; type: cell-based; conditions: 30 minutes pre-incubation, activation with anti-IgM, cells gated on CD20, CD69 by FACS
Method: Activation of the B cell receptor leads to increased BTK activity, calcium mobilization and B cell activation (see Honigberg L. A., et. al., Proc Natl Acad Sci USA. 107:13075-80. 2010). […] CD69 was expressed following B cell activation as a measure of BTK activity in whole blood. Aliquots of whole blood were pre-incubated with serial dilutions of test compound for 30 minutes followed by activation with anti-IgM (goat Fab′ 2, 50 μg/ml). Samples were incubated overnight at 37° C. and then stained with PE labeled anti-CD20 and APC labeled anti-CD69 (BD Pharmingen) for 30 minutes according to the manufacturer's directions. Whole blood was then lysed and cells gated on CD20 expression were quantified for CD 69 expression by FACS. The percent inhibition was calculated based on a DMSO control for no inhibition and plotted as a function of test compound concentration from which an IC50 value was calculated.

Chain of human recombinant BTK (Q06187 whole entry): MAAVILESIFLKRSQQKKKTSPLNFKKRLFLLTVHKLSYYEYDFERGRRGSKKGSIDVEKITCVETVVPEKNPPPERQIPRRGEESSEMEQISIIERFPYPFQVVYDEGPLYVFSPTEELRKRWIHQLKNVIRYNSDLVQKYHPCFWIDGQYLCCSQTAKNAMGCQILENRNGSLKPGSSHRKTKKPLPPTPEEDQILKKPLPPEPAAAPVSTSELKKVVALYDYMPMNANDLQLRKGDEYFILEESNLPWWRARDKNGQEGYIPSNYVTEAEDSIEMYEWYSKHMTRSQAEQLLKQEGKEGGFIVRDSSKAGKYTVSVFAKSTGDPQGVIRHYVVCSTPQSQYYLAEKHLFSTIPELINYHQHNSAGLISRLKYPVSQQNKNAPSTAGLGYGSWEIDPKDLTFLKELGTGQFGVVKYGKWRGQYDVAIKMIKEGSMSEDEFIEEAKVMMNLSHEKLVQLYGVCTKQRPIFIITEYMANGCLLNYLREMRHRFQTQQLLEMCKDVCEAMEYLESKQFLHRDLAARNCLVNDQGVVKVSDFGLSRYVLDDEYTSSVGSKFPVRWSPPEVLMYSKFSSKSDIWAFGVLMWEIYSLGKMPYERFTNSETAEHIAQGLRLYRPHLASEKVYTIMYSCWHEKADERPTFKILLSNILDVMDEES

Row | Structure (SMILES) | IC50 (human recombinant BTK) | IC50 (CD69 expression)
1 | CC(C)(C=C(C#N)C(=O)N1CCC[C@@H](n2nc(-c3ccc(Oc4ccccc4)cc3F)c3c(N)nccc32)C1)C1CCN(C2COC2)CC1 [Compound 23, (R)-2-(3-(4-amino-3-(2-fluoro-4-phenoxyphenyl)-1H-pyrazolo[4,3-c]pyridin-1-yl)piperidine-1-carbonyl)-4-methyl-4-(1-(oxetan-3-yl)piperidin-4-yl)pent-2-enenitrile] | 1.6 nM | 538 nM
2 | CN1CCN(C(C)(C)C=C(C#N)C(=O)N2CCC[C@H]2Cn2nc(-c3ccc(Oc4ccccc4)cc3F)c3c(N)nccc32)CC1 [Compound 12, (S)-2-(2-((4-amino-3-(2-fluoro-4-phenoxyphenyl)-1H-pyrazolo[4,3-c]pyridin-1-yl)methyl)pyrrolidine-1-carbonyl)-4-methyl-4-(4-methylpiperazin-1-yl)pent-2-enenitrile] | 14 nM | 874 nM
3 | CC(C)(C=C(C#N)C(=O)N1CCC[C@H]1Cn1nc(-c2ccc(Oc3ccccc3)cc2F)c2c(N)nccc21)N1CCOCC1 [Compound 22, (S)-2-(2-((4-amino-3-(2-fluoro-4-phenoxyphenyl)-1H-pyrazolo[4,3-c]pyridin-1-yl)methyl)pyrrolidine-1-carbonyl)-4-methyl-4-morpholinopent-2-enenitrile] | 2.5 nM | 511 nM
4 | CC(C)(C)C=C(C#N)C(=O)N1CCC[C@@H](n2nc(-c3ccc(Oc4ccccc4)cc3F)c3c(N)nccc32)C1 [Compound 9, (R)-2-(3-(4-amino-3-(2-fluoro-4-phenoxyphenyl)-1H-pyrazolo[4,3-c]pyridin-1-yl)piperidine-1-carbonyl)-4,4-dimethylpent-2-enenitrile] | 8.6 nM | 526 nM
5 | CC(C)(C=C(C#N)C(=O)N1CCC[C@@H](n2nc(-c3ccc(Oc4ccccc4)c(F)c3)c3c(N)nccc32)C1)N1CCN(C2COC2)CC1 [Compound 26, (R)-2-(3-(4-amino-3-(3-fluoro-4-phenoxyphenyl)-1H-pyrazolo[4,3-c]pyridin-1-yl)piperidine-1-carbonyl)-4-methyl-4-(4-(oxetan-3-yl)piperazin-1-yl)pent-2-enenitrile] | 3 nM | 367 nM
6 | CC(C)(/C=C(\C#N)C(=O)N1CCC[C@H]1Cc1nc(-c2ccc(Oc3ccccc3)cc2F)c2c(N)nccn12)N1CCOCC1 [Compound 17, (S)-2-(2-((8-amino-1-(2-fluoro-4-phenoxyphenyl)imidazo[1,5-a]pyrazin-3-yl)methyl)pyrrolidine-1-carbonyl)-4-methyl-4-morpholinopent-2-enenitrile] | 2.9 nM | 165 nM
7 | CC(C)(/C=C(\C#N)C(=O)N1CCC[C@@H](n2nc(-c3ccc(Oc4ccccc4)cc3F)c3c(N)nccc32)C1)N1CCOCC1 [Compound 11, (R)-2-(3-(4-amino-3-(2-fluoro-4-phenoxyphenyl)-1H-pyrazolo[4,3-c]pyridin-1-yl)piperidine-1-carbonyl)-4-methyl-4-morpholinopent-2-enenitrile] | 2 nM | 200 nM
8 | CN(C1COC1)C(C)(C)C=C(C#N)C(=O)N1CCC[C@H]1Cc1nc(-c2ccc(Oc3ccccc3)cc2F)c2c(N)nccn12 [Compound 18, (S)-2-(2-((8-amino-1-(2-fluoro-4-phenoxyphenyl)imidazo[1,5-a]pyrazin-3-yl)methyl)pyrrolidine-1-carbonyl)-4-methyl-4-(methyl(oxetan-3-yl)amino)pent-2-enenitrile] | 4.3 nM | 130 nM

Reference: patent US11155544B2, “Heterocycle comprising tyrosine kinase inhibitors” (Principia Biopharma Inc., priority 2015, dated 2021)
